# Results: patent publication US20090011424A1, “Cancer-suppressing agents” (Tokyo Medical and Dental University, priority 2005, published 2009)
# System: SMS-KAN cell
# Assay: messenger RNA expression analysis, AceGene Human oligo chip 30 K, NR1I2-expressing clone B1 vs control clone
# Format: cell-based
# Conditions: 2nd: Cy5-B1/Cy3-control
# Excerpt: The NR1I2 gene has been known as a transcriptional factor. Thus, it is possible to know what type of gene expression is controlled by obtaining messenger RNAs from cells causing NR1I2 protein expression and cells not causing such expression, and comparing the expression levels thereof with each other. As described above, the NR1I2 gene protein may have an effect of inhibiting cancer. […] Therefore, pCMV-Tag3 vector not containing a foreign gene as a control was introduced into SMS-KAN cell, and pCMV-Tag3-VP-NR1I2 containing the NR1I2 gene as a test sample was introduced into SMS-KAN cell. As a result, a control cell clone and a cell clone B1 permanently causing NR1I2 protein expression were obtained. Thereafter, analysis of messenger RNA expression was carried out using these two types of cells and an AceGene Human oligo chip 30 K (DNA Chip Research Inc.), with which the expression levels of 30,000 human genes can be observed (Inoue. J., et al. Am J. Pathol. 165. 71. 2004). A complementary strand DNA (complimentary DNA) was prepared, into which aminoallyl-dUTP (Ambion Inc.) was incorporated using an Oligo (dT) 12-18 primer. Then, the aminoallyl group was labeled with reactive Cy3 (cyanin 3) and Cy5 (cyanin 5) (Amersham Biosciences) via a coupling reaction. Hybridization was performed twice (1st: Cy3-B1/Cy5-control; 2nd: Cy5-B1/Cy3-control). Signals were measured using a GenePix 4000B (Axon Instruments) so as to be analyzed by GenePix Pro 4.1 software (Axon Instruments). Tables 3 and 4 are lists of genes, where in the cases of SMS-KAN cells into which the NR1I2 gene had been introduced in the two experiments, the expression levels were 1.5-fold or greater than the expression level in the case of a control cell clone.
substance,measurement,value
"NR1I2 gene: human-derived gene, nuclear receptor subfamily 1, group I, member 2 (pregnane X receptor, PXR), nucleotide sequence SEQ ID NO: 1",ADAMTS2 expression level Ratio 2nd,1.60
same,ADNP expression level Ratio 2nd,1.63
same,AP3S2 expression level Ratio 2nd,2.55
same,APEG1 expression level Ratio 2nd,1.91
same,APOA1 expression level Ratio 2nd,2.00
same,APP expression level Ratio 2nd,2.05
same,ARHC expression level Ratio 2nd,1.52
same,ARL2 expression level Ratio 2nd,1.53
same,ASCL2 expression level Ratio 2nd,2.46
same,ASH1 expression level Ratio 2nd,1.83
same,B4GALT5 expression level Ratio 2nd,1.56
same,BARD1 expression level Ratio 2nd,1.93
same,BCAT2 expression level Ratio 2nd,1.63
same,BLP2 expression level Ratio 2nd,1.53
same,BMP15 expression level Ratio 2nd,1.52
same,C6orf25 expression level Ratio 2nd,1.76
same,CCNA1 expression level Ratio 2nd,1.92
same,CDC7L1 expression level Ratio 2nd,1.86
same,CISH expression level Ratio 2nd,2.17
same,CORO2A expression level Ratio 2nd,1.73
same,Cab45 expression level Ratio 2nd,1.86
same,DKFZp434G05 expression level Ratio 2nd,1.58
same,DKKL1 expression level Ratio 2nd,1.56
same,DNA12 expression level Ratio 2nd,1.54
same,EPHX1 expression level Ratio 2nd,2.25
same,ERCC1 expression level Ratio 2nd,1.84
same,ETR101 expression level Ratio 2nd,1.67
same,EXT1 expression level Ratio 2nd,1.89
same,FLJ10737 expression level Ratio 2nd,1.54
same,FLJ12389 expression level Ratio 2nd,2.19
same,FLJ13197 expression level Ratio 2nd,2.99
same,FLJ13479 expression level Ratio 2nd,1.94
same,FLJ20288 expression level Ratio 2nd,1.83
same,FLJ20555 expression level Ratio 2nd,1.53
same,FLJ23462 expression level Ratio 2nd,1.67
same,FOFR3 expression level Ratio 2nd,1.59
same,GLI2 expression level Ratio 2nd,2.72
same,GNE expression level Ratio 2nd,1.90
same,GSTT2 expression level Ratio 2nd,3.28
same,GUCY1A3 expression level Ratio 2nd,1.63
same,HHEX expression level Ratio 2nd,1.57
same,HNT expression level Ratio 2nd,1.57
same,HPCL2 expression level Ratio 2nd,1.74
same,ICAM5 expression level Ratio 2nd,1.54
same,IFIT4 expression level Ratio 2nd,1.54
same,INSL6 expression level Ratio 2nd,1.68
same,IRC039700 expression level Ratio 2nd,2.15
same,KCNJ15 expression level Ratio 2nd,1.91
same,KIAA0161 expression level Ratio 2nd,1.56
same,KIAA0212 expression level Ratio 2nd,2.04
same,LBP-9 expression level Ratio 2nd,1.95
same,LDB1 expression level Ratio 2nd,1.60
same,LICAM expression level Ratio 2nd,1.89
same,LILRB5 expression level Ratio 2nd,1.76
same,LOC51024 expression level Ratio 2nd,1.69
same,LRP8 expression level Ratio 2nd,1.54
same,LZLP expression level Ratio 2nd,1.61
same,MAFG expression level Ratio 2nd,2.55
same,MGC2306 expression level Ratio 2nd,1.58
same,MGC2941 expression level Ratio 2nd,1.93
same,MPP6 expression level Ratio 2nd,1.70
same,MT-ACT48 expression level Ratio 2nd,1.61
same,OCM expression level Ratio 2nd,1.72
same,OMP expression level Ratio 2nd,1.58
same,OPA3 expression level Ratio 2nd,2.49
same,ORC5L expression level Ratio 2nd,1.69
same,ORM1 expression level Ratio 2nd,1.60
same,PCDHA4 expression level Ratio 2nd,1.97
same,PCDHB10 expression level Ratio 2nd,1.66
same,PDCD8 expression level Ratio 2nd,2.03
same,PFKFB4 expression level Ratio 2nd,4.97
same,PGAM1 expression level Ratio 2nd,2.16
same,PITPN expression level Ratio 2nd,1.75
same,PLA2G2A expression level Ratio 2nd,3.05
same,PLCE1 expression level Ratio 2nd,2.94
same,PLEKHA1 expression level Ratio 2nd,1.56
same,PRO2121 expression level Ratio 2nd,1.91
same,PRO2831 expression level Ratio 2nd,1.53
same,RDH5 expression level Ratio 2nd,1.64
same,RP1 expression level Ratio 2nd,1.56
same,RPL39L expression level Ratio 2nd,2.34
same,RPS16 expression level Ratio 2nd,1.59
same,SC65 expression level Ratio 2nd,1.58
same,SCD expression level Ratio 2nd,1.77
same,SCN2B expression level Ratio 2nd,1.54
same,SLC22A11 expression level Ratio 2nd,1.68
same,SNAP91 expression level Ratio 2nd,3.43
same,STK11 expression level Ratio 2nd,1.64
same,SURF1 expression level Ratio 2nd,1.95
same,TCEA1 expression level Ratio 2nd,1.56
same,TGM2 expression level Ratio 2nd,1.62
same,TIMM10 expression level Ratio 2nd,1.89
same,TLAL1 expression level Ratio 2nd,2.37
same,TMPRSS4 expression level Ratio 2nd,1.57
same,TOP3B expression level Ratio 2nd,1.61
same,TPARL expression level Ratio 2nd,1.58
same,TRPV4 expression level Ratio 2nd,1.80
same,TSPAN-1 expression level Ratio 2nd,1.69
same,UXT expression level Ratio 2nd,2.94
same,WHSC2 expression level Ratio 2nd,1.67
